Measurements from PubChem BioAssay (NCI).
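Results reflect a 48-hour exposure of cells in 96-well plates to compound at five concentrations. GI50: concentration for 50% inhibition of growth. The concentration for full growth arrest is given as TGI.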

What was measured:
Assay in all cases: growth of human tumour cells (NCI), 48 h; in the data active means GI50 below about 0.43 µM; inactive means the rest
[1] = test system: EKVX NSCLC
[2] = test system: HOP-62 NSCLC
[3] = test system: BT-549 breast
[4] = test system: TK-10 renal
[5] = test system: A549 NSCLC
[6] = test system: K-562 leukemia
[7] = test system: OVCAR-5 ovarian
[8] = test system: SN12C renal
[9] = test system: HL-60(TB) leukemia
[10] = test system: SK-MEL-2 melanoma

O=C(Nc1ccc(F)cc1)c1cc(S(=O)(=O)Nc2nc3ccccc3o2)c(SCc2ccccc2)cc1Cl
38.9 µM: TGI [3]
38.4 µM: TGI [5]
34 µM: TGI [1]
31.5 µM: TGI [4]
99.6 µM: TGI [6]
inactive: GI50 [1] 17.1 µM | GI50 [2] 17.7 µM | GI50 [3] 18.5 µM | GI50 [4] 16.4 µM | GI50 [5] 18.3 µM | GI50 [6] 24.7 µM | GI50 [7] 19.7 µM | GI50 [8] 16.4 µM
35.1 µM: TGI [7]
31.6 µM: TGI [8]
33.5 µM: TGI [2]

[N-]=[N+]=Nc1cc(=O)[nH]nc1-c1ccccc1
> 100 µM: TGI [1] | TGI [2] | TGI [3] | TGI [4] | TGI [5] | TGI [6] | TGI [9] | TGI [8]

Cc1cccc(C)c1NC(=O)C(=O)C(C(=O)c1ccccc1-c1ccccc1)C1OC(=O)c2ccccc21 (stereo not drawn)
35.6 µM: TGI [10]
88.9 µM: TGI [9]
72.5 µM: TGI [5]
65.4 µM: TGI [1]
48.9 µM: TGI [7]
53.7 µM: TGI [4]
> 100 µM: TGI [6]
35.7 µM: TGI [2]

COc1ccc(-n2c(C)cc(-c3ccccc3)c2C)cc1
9.92 µM: TGI [9]
inactive: GI50 [10] 1.7 µM | GI50 [2] 6.68 µM | GI50 [3] 2.63 µM | GI50 [4] 3.28 µM | GI50 [5] 2.88 µM | GI50 [6] 1.4 µM | GI50 [9] 2.88 µM | GI50 [7] 2.48 µM | GI50 [8] 2.84 µM
14.6 µM: TGI [7]
3.93 µM: TGI [10]
9.98 µM: TGI [3]
67.8 µM: TGI [2]
> 100 µM: TGI [6] | TGI [8]
38.7 µM: TGI [5]
16.5 µM: TGI [4]

O=C(CSC1CCc2ccccc21)N/N=C/c1ccccc1O (stereo not drawn)
34.2 µM: TGI [3]
73.8 µM: TGI [4]
8.72 µM: TGI [9]
24.6 µM: TGI [10]
inactive: GI50 [10] 5.26 µM | GI50 [2] 10.8 µM | GI50 [3] 5.46 µM | GI50 [4] 6.1 µM | GI50 [5] 4.81 µM | GI50 [6] 4.59 µM | GI50 [9] 2.6 µM | GI50 [7] 8.8 µM | GI50 [8] 4.67 µM
> 100 µM: TGI [2] | TGI [5] | TGI [6] | TGI [7]
67.4 µM: TGI [8]

COc1cc2c3c(n(CCCOC(=O)C(F)(F)F)c(=O)c2cc1OC)-c1cc2c(cc1C3=O)OCO2
< 0.0329 µM: TGI [2]
inactive: GI50 [10] 7.3 µM | GI50 [1] 0.612 µM
0.0272 µM: TGI [8]
active: GI50 [2] < 0.01 µM | GI50 [3] 0.202 µM | GI50 [4] 0.135 µM | GI50 [6] < 0.0289 µM | GI50 [7] 0.14 µM | GI50 [8] < 0.01 µM
68.6 µM: TGI [3]
> 100 µM: TGI [10] | TGI [4] | TGI [6]
43.8 µM: TGI [7]
> 63.8 µM: TGI [1]

COc1cc(C=O)c(-c2cc(OC)c(OC)cc2C=O)cc1OC
> 100 µM: TGI [10] | TGI [1] | TGI [2] | TGI [4] | TGI [5] | TGI [6] | TGI [9] | TGI [7] | TGI [8]

N#CC(C(=O)C(=O)Nc1ccc(Cl)cc1)c1ccccc1 (stereo not drawn)
> 100 µM: TGI [10] | TGI [1] | TGI [2] | TGI [4] | TGI [5] | TGI [6] | TGI [9] | TGI [7] | TGI [8]

S=c1[nH]c(=S)c2nnn(-c3ccccc3)c2[nH]1
> 100 µM: TGI [10] | TGI [1] | TGI [2] | TGI [4] | TGI [5] | TGI [6] | TGI [9] | TGI [7] | TGI [8]

COc1ccc(O)c(C(=O)c2ccc(C(=O)N[C@H]3CCCNC[C@@H]3NC(=O)c3ccncc3)cc2)c1F
inactive: GI50 [10] 4.2 µM | GI50 [2] 4.39 µM | GI50 [3] 1.27 µM | GI50 [4] 0.684 µM | GI50 [5] 16.3 µM | GI50 [6] 7.78 µM | GI50 [9] > 23.5 µM | GI50 [7] > 25 µM | GI50 [8] 3.61 µM
> 22.4 µM: TGI [10]
> 21.1 µM: TGI [2]
13.7 µM: TGI [3]
> 25 µM: TGI [4] | TGI [5] | TGI [6] | TGI [9] | TGI [7] | TGI [8]

Cc1nc([N+](=O)[O-])cn1CC(=N)N
> 100 µM: TGI [10] | TGI [1] | TGI [2] | TGI [4] | TGI [5] | TGI [6] | TGI [9] | TGI [8]

Cc1cc(C)c(/C=C2\C(=O)Nc3ccc(NC(=O)CCCCCCC(=O)NO)cc32)[nH]1
49.8 µM: TGI [10]
active: GI50 [6] 0.373 µM
> 54.1 µM: TGI [7]
> 100 µM: TGI [3] | TGI [4] | TGI [5] | TGI [6] | TGI [9] | TGI [8]
inactive: GI50 [10] 1.89 µM | GI50 [2] 0.485 µM | GI50 [3] 4.43 µM | GI50 [4] 3.1 µM | GI50 [5] > 100 µM | GI50 [9] 0.506 µM | GI50 [7] 1.09 µM | GI50 [8] > 20.4 µM
9.83 µM: TGI [2]

CCC1CCc2c(c(=O)oc3c2cc(OC)c2cccc(OC)c23)C1 (stereo not drawn)
69.6 µM: TGI [9]
> 100 µM: TGI [10] | TGI [1] | TGI [2] | TGI [4] | TGI [5] | TGI [6] | TGI [7] | TGI [8]

COc1cc2c(OC)cc1CSCc1sc(C)c(c1Br)CSC2
> 100 µM: TGI [10] | TGI [1] | TGI [2] | TGI [4] | TGI [5] | TGI [6] | TGI [9] | TGI [7] | TGI [8]

Cc1cc(NS(=O)(=O)c2ccc(Nc3c4ccccc4nc4c(C(=O)N5CCN(CCO)CC5)ccc(Cl)c34)cc2)no1
> 100 µM: TGI [10] | TGI [2] | TGI [4] | TGI [5] | TGI [6] | TGI [9] | TGI [7] | TGI [8]

CCCN1CN(C(C(=O)N[C@@H]2C(=O)N3C2SC(C)(C)C3C(=O)O)c2ccc(O)cc2)CSC1=S (stereo partly drawn)
> 100 µM: TGI [10] | TGI [1] | TGI [2] | TGI [4] | TGI [6] | TGI [9] | TGI [7] | TGI [8]

Cc1cc(C)c(NC(=O)c2sc3nc4c(cc3c2N)CN(Cc2ccccc2)CC4)c(C)c1
57.6 µM: TGI [3]
> 100 µM: TGI [10] | TGI [2] | TGI [4] | TGI [5] | TGI [6] | TGI [7] | TGI [8]
inactive: GI50 [10] 5.59 µM | GI50 [2] 7.73 µM | GI50 [3] 4.05 µM | GI50 [4] 5.06 µM | GI50 [5] 4.11 µM | GI50 [6] 0.903 µM | GI50 [7] 12.5 µM | GI50 [8] 5.6 µM

Cc1ccc(C)c(N=C2NC(=O)C(CC(=O)Nc3ccc(Cl)cc3Cl)S2)c1 (stereo not drawn)
> 100 µM: TGI [10] | TGI [1] | TGI [2] | TGI [4] | TGI [5] | TGI [6] | TGI [9] | TGI [7] | TGI [8]

Cc1cc(S(=O)(=O)O)c(NC(=O)C(=O)Cc2cc(=O)oc3cc(O)ccc23)cc1Cl
> 100 µM: TGI [10] | TGI [1] | TGI [2] | TGI [4] | TGI [5] | TGI [6] | TGI [9] | TGI [7] | TGI [8]
